US20080045521A1, “PHENYLALANINE DERIVATIVES” (AstraZeneca AB, priority 2006, published 2008)

Key:
[1] = target: T1, α5β1 integrin mediated adhesion of K562 cells (Homo sapiens, UniProt P05556+P08648); assay: In vitro cell adhesion assay (b): inhibition of adhesion of K562 cells to fibronectin fragment Fn9-10, crystal violet stain; type: cell-based; conditions: for activity in the cell adhesion assay (b): K562 cells, result in words; for IC50: K562 cells on Fn9-10, geometric mean of the measured IC50 values, n = number of tests
T1 construct: host or cells: K562 human erythroleukaemia cells
From the text: (b) In Vitro Cell Adhesion Assay
The assay determined the ability of compounds to inhibit the α5β1 integrin mediated adhesion of K562 cells to the ligand, a fragment of human fibronectin. The human K562 erythroleukaemia cell line (LGC Promochem, Teddington, Middlesex, UK, Catalogue No. CCL-243) was routinely maintained in RPMI 1640 medium (Sigma-Aldrich Company Ltd, Gillingham, Dorset SP8 4XT, Catalogue No. R0883) containing 10% heat-inactivated foetal calf serum (PAA lab GmbH, Pasching, Austria Catalogue No. PAA-A15-043) and 1% glutamax-1 (Invitrogen Ltd. Paisley, UK Catalogue No. 35050-038) at 37° C. with 5% CO2 at densities between 1×10^5 and 1×10^6 cells/ml.
A DNA fragment encoding the domains 9-10 (amino-acids 1325-1509) of human fibronectin (Swiss-Prot Accession No. P02751) was isolated from cDNA libraries using standard molecular biology and PCR cloning techniques. The cDNA fragment was sub-cloned into a pT7#3.3 expression vector containing a GST-epitope tag (developed at AstraZeneca; Bagnall et al., Protein Expression and Purification, 2003, 27: 1-11), and the fragment termed Fn9-10. Following expression in E. coli, the expressed protein was purified using the GST-tag using standard purification techniques.
For adhesion assay, a 96-well flat bottomed plate (Greiner Bio one ltd., Gloucester GL10 3 SX Catalogue No. 655101) was coated overnight at 4° C. with 100 μl of 20 μg/ml Fn9-10 ligand in Dulbecco's PBS (Gibco#14190-94). The plate was then washed twice with 200 μl of PBS and blocked with 100 μl of 3% BSA (SigmaA7888) in PBS for 1 hour at 37° C. The plates were then washed again 3 times with 200 μl of PBS and left empty.
Test compounds were prepared as 10 mM stock solutions in DMSO (Sigma-Aldrich Company Ltd, Gillingham, Dorset SP8 4XT Catalogue No. 154938) and serially diluted with HBSS (Hanks Buffered Salt solution (Gibco Catalogue No. 14170-088)/2% DMSO to give a range of test concentrations at twice required final concentration. Aliquots (50 μl) of each compound dilution were placed into each well of the Fn9-10 coated plates. Each plate also contained control wells: maximum adhesion signal was created using wells containing 50 μl HBSS/2% DMSO, and minimum signal corresponding to no adhesion was created using wells containing 50 μl HBSS/2% DMSO /20 mM EDTA (Sigma Catalogue No. E7889). […]
After fixation, the ethanol was flicked off to waste and 100 μl of 0.1% Crystal violet stain was added to each well, and incubated at ambient temperature for 15 minutes. […] Finally, 100 μl of deionised water was added to each well and the absorbance was determined at 590 nm on a spectrophotometer. The minimum value was subtracted from all values, and the absorbance signal was plotted against compound concentration to generate IC50 data.

recombinant human α5β1 = recombinant human α5β1 (Homo sapiens, UniProt P05556+P08648); assay: In vitro binding assay (a): inhibition of binding of α5β1 integrin to a fragment of human fibronectin (Fn9-10), Origen electrochemiluminescence; conditions: geometric mean of the measured IC50 values; n = number of tests
From the text: (a) In Vitro Binding Assay
The assay determined the ability of compounds to inhibit binding of α5β1 integrin to a cognate ligand, a fragment of human fibronectin. The assay used Origen technology (IGEN International) to measure the compound activity. Briefly, α5β1 integrin was coated onto epoxy-paramagnetic beads (Dynal Biotech UK, Bromborough, Wirral, CH62 3QL, UK, Catalogue No 140.11) and biotinylated-fibronectin ligand was coupled to strepatividin labeled Tag-NHS-Ester (BioVeris Corporation, Witney, Oxfordshire, OX28 4GE, UK, Catalogue No 110034). The ruthenium-labeled tag emits an electrochemiluminescence signal upon stimulation which is detected by the Origen reader. […]
20 μg of recombinant human α5β1 was coated onto 4×10(7) epoxy-paramagnetic beads according to manufacturers instructions at 4° C. for 24 hours. Integrin coating and corresponding activity was subsequently measured for each batch but typically, 25 ng of coated protein was used per assay well. […]
For the assay, 25 ng (20 ul) of a5b 1-bead suspension and 40 μl of the Fn9-10/Tag pre-incubated solution were added to each well containing 20 μl of compound or control solution. Assay plates were then incubated at room temperature for a minimum of 6 hours before being analysed on an Origen plate reader. […]

T1 sequence (P08648 42-894 limits assumed): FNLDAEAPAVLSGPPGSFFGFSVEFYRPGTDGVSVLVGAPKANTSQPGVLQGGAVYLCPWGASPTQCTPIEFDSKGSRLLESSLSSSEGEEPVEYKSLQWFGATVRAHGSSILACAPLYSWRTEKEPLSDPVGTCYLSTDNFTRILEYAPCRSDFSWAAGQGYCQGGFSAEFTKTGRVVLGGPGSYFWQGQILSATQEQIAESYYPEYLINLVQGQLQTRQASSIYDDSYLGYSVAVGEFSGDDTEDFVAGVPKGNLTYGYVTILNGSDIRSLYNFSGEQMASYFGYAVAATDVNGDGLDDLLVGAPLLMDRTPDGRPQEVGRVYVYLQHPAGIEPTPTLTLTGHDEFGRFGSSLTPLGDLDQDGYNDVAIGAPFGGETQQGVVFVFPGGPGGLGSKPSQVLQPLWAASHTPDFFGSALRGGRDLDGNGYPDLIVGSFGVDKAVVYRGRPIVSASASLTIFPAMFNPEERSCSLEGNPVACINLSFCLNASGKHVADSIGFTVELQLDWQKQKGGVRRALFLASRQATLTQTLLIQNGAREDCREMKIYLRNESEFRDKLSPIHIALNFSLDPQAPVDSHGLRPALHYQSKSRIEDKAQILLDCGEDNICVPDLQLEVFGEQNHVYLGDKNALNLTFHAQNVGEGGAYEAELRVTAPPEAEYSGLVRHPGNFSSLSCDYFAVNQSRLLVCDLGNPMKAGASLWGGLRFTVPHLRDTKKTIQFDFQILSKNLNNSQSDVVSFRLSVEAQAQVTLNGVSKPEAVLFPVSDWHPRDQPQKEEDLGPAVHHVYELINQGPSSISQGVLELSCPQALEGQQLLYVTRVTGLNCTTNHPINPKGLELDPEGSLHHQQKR
T1 sequence (P08648 895-1049 partner limits assumed): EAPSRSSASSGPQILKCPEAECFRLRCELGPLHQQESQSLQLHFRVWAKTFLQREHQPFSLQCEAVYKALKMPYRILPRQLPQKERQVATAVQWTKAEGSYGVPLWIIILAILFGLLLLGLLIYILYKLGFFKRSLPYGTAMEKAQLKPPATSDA
T1 sequence (P05556 21-798): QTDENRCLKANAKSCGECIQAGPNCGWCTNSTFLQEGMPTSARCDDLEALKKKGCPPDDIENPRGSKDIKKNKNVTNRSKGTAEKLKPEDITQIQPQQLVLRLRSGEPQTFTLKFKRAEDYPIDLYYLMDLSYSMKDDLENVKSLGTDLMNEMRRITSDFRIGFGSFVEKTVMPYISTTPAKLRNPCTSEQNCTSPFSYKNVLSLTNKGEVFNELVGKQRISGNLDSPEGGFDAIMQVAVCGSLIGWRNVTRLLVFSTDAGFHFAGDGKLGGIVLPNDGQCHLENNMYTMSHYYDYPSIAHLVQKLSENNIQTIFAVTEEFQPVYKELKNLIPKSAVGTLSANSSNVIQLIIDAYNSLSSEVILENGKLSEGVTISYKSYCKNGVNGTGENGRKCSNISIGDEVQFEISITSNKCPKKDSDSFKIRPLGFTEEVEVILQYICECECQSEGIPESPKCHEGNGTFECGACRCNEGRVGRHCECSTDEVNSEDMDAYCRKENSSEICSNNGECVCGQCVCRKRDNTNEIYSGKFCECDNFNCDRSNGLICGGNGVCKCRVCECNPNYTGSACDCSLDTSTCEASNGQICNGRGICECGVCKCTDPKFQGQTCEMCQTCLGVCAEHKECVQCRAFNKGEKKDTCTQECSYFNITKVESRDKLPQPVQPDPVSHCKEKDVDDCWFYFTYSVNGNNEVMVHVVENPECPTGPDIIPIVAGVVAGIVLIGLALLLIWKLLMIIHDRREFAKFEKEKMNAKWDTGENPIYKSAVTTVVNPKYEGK
recombinant human α5β1, sequence (P08648 42-1049): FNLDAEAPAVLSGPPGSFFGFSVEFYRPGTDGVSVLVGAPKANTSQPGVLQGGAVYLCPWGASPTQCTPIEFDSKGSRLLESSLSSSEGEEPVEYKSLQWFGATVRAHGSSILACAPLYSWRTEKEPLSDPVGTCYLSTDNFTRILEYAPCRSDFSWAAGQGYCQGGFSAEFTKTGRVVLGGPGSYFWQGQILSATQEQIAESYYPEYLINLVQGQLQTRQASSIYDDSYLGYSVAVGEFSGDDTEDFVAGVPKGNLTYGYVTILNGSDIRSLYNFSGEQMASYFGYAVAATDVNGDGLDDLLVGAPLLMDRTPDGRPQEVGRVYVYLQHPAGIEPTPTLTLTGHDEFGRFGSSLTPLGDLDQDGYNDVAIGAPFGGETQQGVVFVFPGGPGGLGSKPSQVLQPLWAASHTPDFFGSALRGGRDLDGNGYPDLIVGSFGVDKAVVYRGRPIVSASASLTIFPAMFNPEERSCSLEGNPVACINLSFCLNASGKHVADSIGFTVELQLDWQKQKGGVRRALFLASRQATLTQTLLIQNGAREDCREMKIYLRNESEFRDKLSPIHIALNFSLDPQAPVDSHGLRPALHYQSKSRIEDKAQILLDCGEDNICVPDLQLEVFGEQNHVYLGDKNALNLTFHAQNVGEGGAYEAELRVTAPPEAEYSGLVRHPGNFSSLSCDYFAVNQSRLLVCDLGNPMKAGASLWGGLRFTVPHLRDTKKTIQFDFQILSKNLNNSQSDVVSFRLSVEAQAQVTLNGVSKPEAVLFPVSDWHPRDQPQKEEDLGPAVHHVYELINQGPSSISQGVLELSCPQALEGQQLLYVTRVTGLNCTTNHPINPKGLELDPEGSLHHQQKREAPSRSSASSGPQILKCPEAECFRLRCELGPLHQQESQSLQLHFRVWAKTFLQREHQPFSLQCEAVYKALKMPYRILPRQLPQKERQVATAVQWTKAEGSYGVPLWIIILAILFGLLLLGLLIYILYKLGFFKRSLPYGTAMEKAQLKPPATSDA
recombinant human α5β1, sequence (P05556 21-798): as the sequence (P05556 21-798) above

SMILES | activity in the cell adhesion assay (b) [1] | IC50 (recombinant human α5β1) | IC50 [1]
O=C(N[C@@H](Cc1cccc(OCCCCNc2ccccn2)c1)C(=O)O)c1c(Cl)cccc1Cl [N-(2,6-dichlorobenzoyl)-3-[4-(pyridin-2-ylamino)butoxy]-L-phenylalanine] | low activity |  | 
O=C(N[C@@H](Cc1ccc(OCCc2ccc3c(n2)NCCC3)cc1)C(=O)O)c1c(Cl)cccc1Cl [Example 3, N-(2,6-dichlorobenzoyl)-O-[2-(5,6,7,8-tetrahydro-1,8-naphthyridin-2-yl)ethyl]-L-tyrosine] |  | 0.4 nM | 2 nM
O=C(N[C@@H](Cc1cccc(OCCNc2ccccn2)c1)C(=O)O)c1c(Cl)cccc1Cl [N-(2,6-dichlorobenzoyl)-3-[2-(pyridin-2-ylamino)ethoxy]-L-phenylalanine] | low activity |  | 
CNc1cccc(CCCc2ccc(C[C@H](NC(=O)c3c(Cl)cccc3Cl)C(=O)O)s2)n1 [Example 29, N-(2,6-dichlorobenzoyl)-3-(5-{3-[6-(methylamino)pyridin-2-yl]propyl}-2-thienyl)-L-alanine] |  | 2 nM | 31 nM
